Experimental findings from patent US12268687B2, “Compounds and uses thereof” (JANSSEN PHARMACEUTICA NV, priority 2020, dated 2025) are described below.

Assay [1] deals with SCD1 (Homo sapiens (Human), UniProt O00767). Description: Growth inhibition of yeast strain expressing human SCD1 as the sole desaturase. It counts as cell-based.
The target of assay [2] is SCD5 (Homo sapiens (Human), UniProt Q86SK9). Description: Growth inhibition of yeast strain expressing human SCD5 as the sole desaturase. It counts as cell-based.
Where [3] appears, read: ole1Δ yeast with human SCD1 plasmid, OD600 growth read at 40 h, top concentration 33.3 μM per method.
Setting [4] is: ole1Δ yeast with human SCD5 plasmid, OD600 growth read at 40 h, top concentration 33.3 μM per method.

Like-named read-outs stand apart in the source and are kept apart here.

Chain of SCD5 (Q86SK9 whole entry): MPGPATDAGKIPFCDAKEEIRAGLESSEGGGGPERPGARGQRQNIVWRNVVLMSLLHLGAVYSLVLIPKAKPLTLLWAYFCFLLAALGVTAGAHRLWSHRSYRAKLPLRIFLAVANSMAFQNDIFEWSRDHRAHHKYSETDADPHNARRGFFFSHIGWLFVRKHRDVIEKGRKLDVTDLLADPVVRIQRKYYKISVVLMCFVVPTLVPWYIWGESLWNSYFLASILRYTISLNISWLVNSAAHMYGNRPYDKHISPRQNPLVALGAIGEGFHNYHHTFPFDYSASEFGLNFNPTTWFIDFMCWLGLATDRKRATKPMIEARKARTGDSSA
Chain of SCD1 (O00767 whole entry): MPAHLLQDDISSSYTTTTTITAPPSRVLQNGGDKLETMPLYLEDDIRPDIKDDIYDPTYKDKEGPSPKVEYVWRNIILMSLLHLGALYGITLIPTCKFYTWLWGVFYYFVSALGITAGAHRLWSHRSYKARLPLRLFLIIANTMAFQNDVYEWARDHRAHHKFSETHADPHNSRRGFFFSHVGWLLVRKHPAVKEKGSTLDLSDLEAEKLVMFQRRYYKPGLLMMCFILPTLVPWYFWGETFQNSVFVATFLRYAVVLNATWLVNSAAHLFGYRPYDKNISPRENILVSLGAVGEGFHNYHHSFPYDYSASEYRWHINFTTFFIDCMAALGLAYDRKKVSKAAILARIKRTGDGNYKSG

Regarding `Cn1nc(NC(=O)N2CCC(Oc3cccc(F)c3Cl)CC2)ccc1=O` [Compound 78, 4-(2-Chloro-3-fluorophenoxy)-N-(1-methyl-6-oxo-1,6-dihydropyridazin-3-yl)piperidine-1-carboxamide], the IC50 in assay [1] (setting [3]) was determined as 170 nM; in assay [2] (setting [4]), 10 nM.
With `Cn1nc(NC(=O)C2CCN(Cc3cccc(Cl)c3)CC2)ccc1=O` [Compound 136, 1-(3-chlorobenzyl)-N-(1-methyl-6-oxo-1,6-dihydropyridazin-3-yl)piperidine-4-carboxamide], the IC50 in assay [1] (setting [3]) and in assay [2] (setting [4]) was over 45000 nM throughout.
In the case of “6-(3-(4-(3,5-difluorobenzyl)piperidin-1-yl)-1,2,4-oxadiazol-5-yl)-2-methylpyridazin-3(2H)-one [Compound 115]”, the figures for the IC50 in assay [1] (setting [3]) and in assay [2] (setting [4]) were 450 nM and 10 nM, respectively.
Turning to `Cn1nc(NC(=O)N2CCC(Cc3cc(F)cc(F)c3)CC2)ccc1=O` [Compound 51, 4-(3,5-difluorobenzyl)-N-(1-methyl-6-oxo-1,6-dihydropyridazin-3-yl)piperidine-1-carboxamide], the IC50 in assay [1] was 680 nM; in assay [2], 60 nM.
For the compound `Cn1cc(NC(=O)N2CCC(Cc3cc(F)cc(F)c3)CC2)ccc1=O` [Compound 9], the figures for the IC50 in assay [1] (setting [3]) and in assay [2] (setting [4]) were 14400 nM and 4220 nM, respectively.
On to `Cn1nc(NC(=O)N2CCC(Oc3cccc(Cl)c3F)CC2)ccc1=O` [Compound 77, 4-(3-chloro-2-fluorophenoxy)-N-(1-methyl-6-oxo-1,6-dihydropyridazin-3-yl)piperidine-1-carboxamide], for which the IC50 in assay [1] (setting [3]) amounted to 910 nM; in assay [2] (setting [4]), 740 nM.
